Data published in patent US12054486B2, “Pyridine derivatives and their use as sodium channel activators” (Xenon Pharmaceuticals Inc., priority 2021, dated 2024).
pEC50: −log10 of the molar value.

The compounds below were run against sodium channel isoforms of interest stably expressed in Human Embryonic Kidney Cells (voltage-gated sodium channel, particularly NaV1.1) (Homo sapiens, UniProt P35498) (assay: automated planar patch clamp assay of sodium channel gating (area under the sodium current trace)). Settings: HEK cells, voltage step from −120 mV to 0 mV, increasing concentrations.
Type: cell-based
Source text: A typical assay described in Crestey, F. et al., ACS Chem Neurosci (2015), Vol. 6, pp. 1302-1308, AA43279 (Frederiksen, K. et al., Eur J Neurosci (2017), Vol. 46, pp. 1887-1896) and Lu AE98134 (von Schoubyea, N. L. et al., Neurosci Lett (2018), Vol. 662, pp. 29-35) employs the use of automated planar patch clamp techniques to study the effects of the chemical agent on the gating of sodium channels. The sodium channel isoforms of interest are stably expressed in Human Embryonic Kidney Cells and the currents that flow through those channels in response to a depolarizing voltage clamp step from −120 mV to 0 mV are measured in the presence of increasing concentrations of the chemical agents. The area under the sodium current trace which correlates to the magnitude of sodium flux through the cell membrane is used to quantify the effects on gating of the channels. Other parameters that are measured in the assay include the peak current, time constant of open state inactivation and the voltage dependence of steady state inactivation properties. The concentration responses are used to determine potency of each chemical agents effects on modulating the sodium channel isoform gating. Such techniques are known to those skilled in the art, and may be developed, using current technologies, into low or medium throughput assays for evaluating compounds for their ability to modulate sodium channel behaviour.
As disclosed above, typical assays for testing compounds of the disclosure are known, for example as disclosed in Crestey, F. et al., ACS Chem Neurosci (2015), Vol. 6, pp. 1302-1308, AA43279 (Frederiksen, K. et al., Eur J Neurosci (2017), Vol. 46, pp. 1887-1896) and Lu AE98134 (von Schoubyea, N. L. et al., Neurosci Lett (2018), Vol. 662, pp. 29-35) which employs the use of automated planar patch clamp techniques to study the effects of the chemical agent on the gating of sodium channels. The sodium channel isoforms of interest are stably expressed in Human Embryonic Kidney Cells and the currents that flow through those channels in response to a depolarizing voltage clamp step from −120 mV to 0 mV are measured in the presence of increasing concentrations of the chemical agents. The area under the sodium current trace which correlates to the magnitude of sodium flux through the cell membrane is used to quantify the effects on gating of the channels. Other parameters that are measured in the assay include the peak current, time constant of open state inactivation and the voltage dependence of steady state inactivation properties. The concentration responses are used to determine potency of each chemical agents effects on modulating the sodium channel isoform gating.
CC1(C)OCCc2nc(-c3c(-c4ccccc4)ccnc3N3CCC(F)(F)C3)[nH]c21 [Example 54, 2-(2-(3,3-difluoropyrrolidin-1-yl)-4-phenylpyridin-3-yl)-4,4-dimethyl-3,4,6,7-tetrahydropyrano[3,4-d]imidazole] was tested, and the pEC50 was 5.00 to 6.00 and the “Empirical Emax” value was “+++ (+++ indicates a value from 5.0 up to 7.5 μM)”.
With CC(C)(C)OC(=O)N1CCc2nc(-c3c(-c4ccccc4)ccnc3N3CCC(F)(F)C3)[nH]c2C1 [Example 55, Tert-Butyl 2-[2-(3,3-difluoropyrrolidin-1-yl)-4-phenyl-3-pyridyl]-3,4,6,7-tetrahydroimidazo[4,5-c]pyridine-5-carboxylate] the pEC50 was > 6.00 and the “Empirical Emax” value was “+++ (+++ indicates a value from 5.0 up to 7.5 μM)”.
Fc1ccc(F)c(-c2ccnc(N3CC[C@H](F)C3)c2-c2nc3c([nH]2)COCC3)c1 [Example 56, (S)-2-(4-(2,5-difluorophenyl)-2-(3-fluoropyrrolidin-1-yl)pyridin-3-yl)-3,4,6,7-tetrahydropyrano[3,4-d]imidazole] was tested, and the pEC50 was 5.00 to 6.00 and the “Empirical Emax” value was “++++ (++++ indicates a value greater than 7.5)”.
In the case of CC1(C)Cc2nc(-c3c(-c4cc(F)ccc4F)ccnc3N3CCC(F)(F)C3)[nH]c2CO1 [Example 57, 2-(4-(2,5-difluorophenyl)-2-(3,3-difluoropyrrolidin-1-yl)pyridin-3-yl)-6,6-dimethyl-3,4,6,7-tetrahydropyrano[3,4-d]imidazole], the pEC50 was > 6.00 and the “Empirical Emax” value was “++++ (++++ indicates a value greater than 7.5)”.
For COC1CCc2nc(-c3c(-c4ccccc4)ccnc3N3CC[C@H](F)C3)[nH]c2C1 (stereo partly drawn) [Example 58, 2-(2-((S)-3-fluoropyrrolidin-1-yl)-4-phenylpyridin-3-yl)-6-methoxy-4,5,6,7-tetrahydro-1H-benzo[d]imidazole], the pEC50 was 5.00 to 6.00 and the “Empirical Emax” value was “++ (++ indicates a value from 2.0 up to 5.0 μM)”.
With COC1CCc2nc(-c3c(-c4ccccc4)ccnc3N3CCC(F)(F)C3)[nH]c2C1 (stereo not drawn) [Example 59, 2-(2-(3,3-difluoropyrrolidin-1-yl)-4-phenylpyridin-3-yl)-6-methoxy-4,5,6,7-tetrahydro-1H-benzo[d]imidazole] the pEC50 was > 6.00 and the “Empirical Emax” value was “++ (++ indicates a value from 2.0 up to 5.0 μM)”.
FC1(F)CCN(c2nccc(-c3ccccc3)c2-c2nc3c([nH]2)CCCC3)C1 [Example 60, 2-(2-(3,3-difluoropyrrolidin-1-yl)-4-phenylpyridin-3-yl)-4,5,6,7-tetrahydro-1H-benzo[d]imidazole] was tested, and the pEC50 was > 6.00 and the “Empirical Emax” value was “++ (++ indicates a value from 2.0 up to 5.0 μM)”.
In the case of Cc1[nH]c(-c2c(-c3ccccc3)ccnc2N2CCC(F)(F)C2)nc1-c1ccccc1 [Example 61, 2-(3,3-difluoropyrrolidin-1-yl)-3-(5-methyl-4-phenyl-1H-imidazol-2-yl)-4-phenylpyridine], the pEC50 was 5.00 to 6.00 and the “Empirical Emax” value was “++ (++ indicates a value from 2.0 up to 5.0 μM)”.
With CC(C)(C)c1nc(-c2c(-c3ccccc3)ccnc2N2CCC(F)(F)C2)no1 [Example 62, 5-(tert-butyl)-3-(2-(3,3-difluoropyrrolidin-1-yl)-4-phenylpyridin-3-yl)-1,2,4-oxadiazole] the pEC50 was 5.00 to 6.00 and the “Empirical Emax” value was “+ (+ indicates a value less than 2.0 μM)”.
In the case of OC1Cc2nc(-c3c(-c4ccccc4)ccnc3N3CCC(F)(F)C3)[nH]c2C1 [Example 63, 2-(2-(3,3-difluoropyrrolidin-1-yl)-4-phenylpyridin-3-yl)-1,4,5,6-tetrahydrocyclopenta[d]imidazol-5-ol], the pEC50 was 5.00 to 6.00 and the “Empirical Emax” value was “++ (++ indicates a value from 2.0 up to 5.0 μM)”.
For c1ccc(-c2ccnc(N3CCOCC3)c2-c2nc3c([nH]2)COCC3)cc1 [Example 64, 2-(2-morpholino-4-phenylpyridin-3-yl)-3,4,6,7-tetrahydropyrano[3,4-d]imidazole], the pEC50 was 4.30 to 5.00 and the “Empirical Emax” value was “+ (+ indicates a value less than 2.0 μM)”.
In the case of FC1(F)CN(c2nccc(-c3ccccc3)c2-c2nc3c([nH]2)COCC3)C1 [Example 65, 2-(2-(3,3-difluoroazetidin-1-yl)-4-phenylpyridin-3-yl)-3,4,6,7-tetrahydropyrano[3,4-d]imidazole], the pEC50 was ≤ 4.30 and the “Empirical Emax” value was “++ (++ indicates a value from 2.0 up to 5.0 μM)”.
c1ccc(-c2ccnc(N3CC4(COC4)C3)c2-c2nc3c([nH]2)COCC3)cc1 [Example 66, 2-(4-phenyl-2-(2-oxa-6-azaspiro[3.3]heptan-6-yl)pyridin-3-yl)-3,4,6,7-tetrahydropyrano[3,4-d]imidazole] was tested, and the pEC50 was 5.00 to 6.00 and the “Empirical Emax” value was “+++ (+++ indicates a value from 5.0 up to 7.5 μM)”.
In the case of c1ccc(-c2ccnc(OC3CCC3)c2-c2nc3c([nH]2)COCC3)cc1 [Example 67, 2-(2-cyclobutoxy-4-phenylpyridin-3-yl)-3,4,6,7-tetrahydropyrano[3,4-d]imidazole], the pEC50 was ≤ 4.30 and the “Empirical Emax” value was “+ (+ indicates a value less than 2.0 μM)”.
With F[C@H]1CCN(c2nccc(-c3ccccc3)c2-c2nc3ccccc3o2)C1 [Example 68, (S)-2-(2-(3-fluoropyrrolidin-1-yl)-4-phenylpyridin-3-yl)benzo[d]oxazole] the pEC50 was ≤ 4.30 and the “Empirical Emax” value was “+ (+ indicates a value less than 2.0 μM)”.
In the case of F[C@H]1CCN(c2nccc(-c3ccccc3)c2-c2nc(-c3ccccc3)n[nH]2)C1 [Example 69, (S)-2-(3-fluoropyrrolidin-1-yl)-4-phenyl-3-(3-phenyl-1H-1,2,4-triazol-5-yl)pyridine], the pEC50 was 5.00 to 6.00 and the “Empirical Emax” value was “++ (++ indicates a value from 2.0 up to 5.0 μM)”.
Fc1ccccc1-c1ccnc(N2CCC(F)(F)C2)c1-c1nc2c([nH]1)COCC2 [Example 72, 2-[2-(3,3-difluoropyrrolidin-1-yl)-4-(2-fluorophenyl)-3-pyridyl]-1,4,6,7-tetrahydropyrano[3,4-d]imidazole] was tested, and the pEC50 was > 6.00 and the “Empirical Emax” value was “++++ (++++ indicates a value greater than 7.5)”.
With Fc1ccc(F)c(-c2ccnc(N3CCC(F)(F)C3)c2-c2nc3c([nH]2)CCOC3)c1 [Example 73, 2-[4-(2,5-difluorophenyl)-2-(3,3-difluoropyrrolidin-1-yl)-3-pyridyl]-1,4,6,7-tetrahydropyrano[3,4-d]imidazole] the pEC50 was > 6.00 and the “Empirical Emax” value was “+++ (+++ indicates a value from 5.0 up to 7.5 μM)”.
FC1(F)CCN(c2nccc(-c3ccc4[nH]ncc4c3)c2-c2nc3c([nH]2)CCOC3)C1 [Example 74, 2-[2-(3,3-difluoropyrrolidin-1-yl)-4-(1H-indazol-5-yl)-3-pyridyl]-1,4,6,7-tetrahydropyrano[3,4-d]imidazole] was tested, and the pEC50 was 5.00 to 6.00 and the “Empirical Emax” value was “++++ (++++ indicates a value greater than 7.5)”.
For Fc1cccc(-c2ccnc(N3CCC(F)(F)C3)c2-c2nc3c([nH]2)CCOC3)c1 [Example 75, 2-[2-(3,3-difluoropyrrolidin-1-yl)-4-(3-fluorophenyl)-3-pyridyl]-1,4,6,7-tetrahydropyrano[3,4-d]imidazole], the pEC50 was > 6.00 and the “Empirical Emax” value was “++++ (++++ indicates a value greater than 7.5)”.
With FC1(F)CCN(c2nccc(-c3ccccn3)c2-c2nc3c([nH]2)CCOC3)C1 [Example 76, 2-[2-(3,3-difluoropyrrolidin-1-yl)-4-(2-pyridyl)-3-pyridyl]-1,4,6,7-tetrahydropyrano[3,4-d]imidazole] the pEC50 was 4.30 to 5.00 and the “Empirical Emax” value was “+++ (+++ indicates a value from 5.0 up to 7.5 μM)”.
